Assay results: patent publication US20180186755A1, “LYSYL OXIDASE-LIKE 2 INHIBITORS AND USES THEREOF” (PharmAkea, Inc., priority 2015, published 2018)

Key:
[1] = system: bleomycin-induced lung fibrosis in C57Bl/6 male mice; experiment: Mouse oropharyngeal bleomycin model of lung fibrosis; assay type: in vivo; details: dosed prophylactically at 60 mg/kg p.o.
Protocol: Example B-3: Mouse Oropharyngeal Bleomycin Model of Lung Fibrosis
Lung fibrosis is induced in C57Bl/6 male mice by administering bleomycin (0.1-4 U/kg) via oropharyngeal instillation. Mice are either pretreated with vehicle or test compound (1 day to 1 hour) orally, intraperitoneally, intravenously or subcutaneously before bleomycin installation (prophylactic dosing) or 7-14 days post bleomycin instillation (therapeutic dosing). The route and frequency of dosing are based on previously determined pharmacokinetic properties for the LOXL2 inhibitor in mouse. After bleomycin instillation animals are monitored daily for weight loss and clinical signs for 14-28 days prior to sacrifice. […] For histological examination, lung slices are stained with Masson's trichrome or Picro-Sirius red to measure cross-linked collagen as an indicator of fibrosis and an Ashcroft score of lung fibrotic and inflammatory damage determined. In addition, immunohistochemistry of fibrotic proteins such as a-smooth muscle actin can be recorded. […] After the acid hydrolysis, 25-100 μl of the supernatant is dried down, resuspended in 25 μl water and the hydroxyproline content determined by the addition of 0.5 ml Chloramine T solution (140 mg Chloramine T in 6.5 ml ddH20+1 ml n-propanol+2.5 ml 1M sodium acetate) and incubation at room temperature for 20 min. […]

human LOXL2 = target: T1, human LOXL2 (Homo sapiens, UniProt Q9Y4K0); experiment: Human LOXL2 amine oxidase activity assay (Amplex Red fluorescence); assay type: biochemical; details: concentrated conditioned media from CHO cells stably expressing human LOXL2; 2 h at 37° C. preincubation; DAP substrate
T1 construct: expressed in transfected cells; 10-20x concentrated conditioned media used as the enzyme source
T1 sequence (Q9Y4K0 26-774): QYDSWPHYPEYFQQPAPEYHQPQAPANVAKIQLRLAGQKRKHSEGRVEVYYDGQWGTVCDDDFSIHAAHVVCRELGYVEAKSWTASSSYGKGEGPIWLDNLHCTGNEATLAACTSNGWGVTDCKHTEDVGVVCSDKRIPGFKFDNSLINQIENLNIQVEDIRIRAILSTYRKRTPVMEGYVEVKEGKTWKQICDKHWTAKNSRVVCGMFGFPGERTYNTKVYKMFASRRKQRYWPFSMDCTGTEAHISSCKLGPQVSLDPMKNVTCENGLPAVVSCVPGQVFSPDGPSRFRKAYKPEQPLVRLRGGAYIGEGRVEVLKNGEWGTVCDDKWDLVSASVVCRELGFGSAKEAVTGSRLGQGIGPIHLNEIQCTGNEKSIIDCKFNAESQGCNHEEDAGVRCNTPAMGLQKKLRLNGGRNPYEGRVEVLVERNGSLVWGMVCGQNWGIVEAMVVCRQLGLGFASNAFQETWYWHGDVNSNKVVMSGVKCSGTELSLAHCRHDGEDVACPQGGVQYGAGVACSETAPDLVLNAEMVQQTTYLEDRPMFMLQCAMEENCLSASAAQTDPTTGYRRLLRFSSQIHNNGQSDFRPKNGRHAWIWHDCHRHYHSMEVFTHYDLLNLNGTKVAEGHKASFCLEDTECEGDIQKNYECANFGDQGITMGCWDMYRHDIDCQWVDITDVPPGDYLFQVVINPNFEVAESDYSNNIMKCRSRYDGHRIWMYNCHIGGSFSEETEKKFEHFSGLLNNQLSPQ
Summary of the method: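 Enzyme source: 10-20× concentrated conditioned media from CHO cells stably expressing human LOXL2, preincubated with compound for 2 h at 37° C in 50 mM borate pH 8. Reaction started with 1,5-diaminopentane plus Amplex Red/HRP; fluorescence (ex 544/em 590) read kinetically for 1 hour, activity from linear slope.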

With `Cl.NCc1cc(Oc2cccc(C(=O)NCc3ccnc(Cl)c3)c2)ncn1` [Compound 1-55, 3-((6-(Aminomethyl)pyrimidin-4-yl)oxy)-N-((2-chloropyridin-4-yl)methyl)benzamide] the “efficacy in mouse oropharyngeal bleomycin model of lung fibrosis” value [1] was “efficacious” and the IC50 (human LOXL2) was < 100 nM.

`NCc1cc(Oc2cccc(C(=O)N3CCN(c4ccccc4)CC3)c2)ncn1` [Compound 1-72, (3-((6-(Aminomethyl)pyrimidin-4-yl)oxy)phenyl)(4-phenylpiperazin-1-yl)methanone] was tested, and the “efficacy in mouse oropharyngeal bleomycin model of lung fibrosis” value [1] was “efficacious” and the IC50 (human LOXL2) was < 100 nM.

`NCc1cc(NCc2cccc(C(=O)NCc3sc4ccccc4c3Cl)c2)ncn1` [Compound 1-98, 3-(((6-(Aminomethyl)pyrimidin-4-yl)amino)methyl)-N-((3-chlorobenzo[b]thiophen-2-yl)methyl)benzamide] was tested, and the IC50 (human LOXL2) was < 100 nM.

`NCc1cc(-n2ccc3c(CO)cccc32)ncn1` [Compound 1-99, (1-(6-(Aminomethyl)pyrimidin-4-yl)-1H-indol-4-yl)methanol] was tested, and the IC50 (human LOXL2) was 100 to 1000 nM.

In the case of `NCc1cc(NCc2cccc(C(=O)N3CCN(c4ccccc4)CC3)c2)ncn1` [Compound 1-100, (3-(((6-(Aminomethyl)pyrimidin-4-yl)amino)methyl)phenyl)(4-phenylpiperazin-1-yl)methanone], the IC50 (human LOXL2) is reported as 100 to 1000 nM.

With `NCc1cc(Oc2cccc3c2CCC(=O)N3)ncn1` [Compound 1-101, 5-((6-(Aminomethyl)pyrimidin-4-yl)oxy)-3,4-dihydroquinolin-2(1H)-one] the IC50 (human LOXL2) was < 100 nM.

`NCc1cc(N2CC[C@@H](C(=O)Nc3ccccc3)C2)ncn1` [Compound 1-102, (R)-1-(6-(Aminomethyl)pyrimidin-4-yl)-N-phenylpyrrolidine-3-carboxamide] was tested, and the IC50 (human LOXL2) was 100 to 1000 nM.

With `NCc1cc(N2CCC(C(=O)Nc3ccccc3)CC2)ncn1` [Compound 1-103, 1-(6-(Aminomethyl)pyrimidin-4-yl)-N-phenylpiperidine-4-carboxamide] the IC50 (human LOXL2) was 100 to 1000 nM.

In the case of `NCc1cc(N2CCN(C(=O)c3ccccc3)CC2)ncn1` [Compound 1-104, (4-(6-(Aminomethyl)pyrimidin-4-yl)piperazin-1-yl)(phenyl)methanone], the IC50 (human LOXL2) is reported as > 1000 nM.

In the case of `NCc1cc(N2CCN(C(=O)Nc3ccccc3)CC2)ncn1` [Compound 1-105, 4-(6-(Aminomethyl)pyrimidin-4-yl)-N-phenylpiperazine-1-carboxamide], the IC50 (human LOXL2) is reported as 100 to 1000 nM.

For `NCc1cc(N2CCN(C(=O)Cc3ccccc3)CC2)ncn1` [Compound 1-106, 1-(4-(6-(Aminomethyl)pyrimidin-4-yl)piperazin-1-yl)-2-phenylethanone], the IC50 (human LOXL2) was 100 to 1000 nM.

In the case of `NCc1cc(N2C(=O)CCc3c(OCc4ccccc4)cccc32)ncn1` [Compound 1-107, 1-(6-(Aminomethyl)pyrimidin-4-yl)-5-(benzyloxy)-3,4-dihydroquinolin-2(1H)-one], the IC50 (human LOXL2) is reported as < 100 nM.
